One molecule from patent US12070472B2, “Treatment of drug resistant proliferative diseases with telomerase mediated telomere altering compounds” (The Board of Regents of the University of Texas System, priority 2016, dated 2024) can be followed below.

Series [1] has as its system BJ-hTERT cells. The experiment in a line: Telomere dysfunction induced foci (TIF) assay in BJ-hTERT cells. Format: cell-based, human. To be noted: 10 μM, after 48 hours. The procedure: (§1) TIFs were quantified using Imaris software.
(§2) Normal BJ cells and […] BJ-hTERT cells were seeded in chamber slides. Following cell attachment, 6-thio-dG (10 μM) and 6-thio-G (10 μM) were added to fresh medium of each cell type. […] A control was used for each cell type as well, where DMSO was added to fresh medium of each cell type. […] These include almost all human cancer cells and certain human diseases involving acute and chronic inflammation.

Series [2] deals with BJ cells. Nature of the series: Telomere dysfunction induced foci (TIF) assay in normal BJ cells. The note with it: 10 μM, after 48 hours. The series is classed as cell-based, human. On the procedure: as §1, §2
For series [3], the system named is BJ. The experiment in a line: GI 50 determination, BJ. Format: cell-based. To be noted: Homo sapiens; BJ normal cell line. The procedure: (§3) Cells of each type listed in Table 2 were seeded in chamber slides.
For series [4], the system named is HCC15. Nature of the series: GI 50 determination, HCC15. Format: cell-based. The note with it: Homo sapiens. The procedure: as §3
Series [5] concerns HCC515. Nature of the series: GI 50 determination, HCC515. Format: cell-based. The note with it: Homo sapiens. The procedure:
as §3

Series [6] has as its system HCT116 cells. The note with it: 3 μM twice during one week. The procedure:
Cancer HCT116 and normal BJ fibroblast cells were treated with 6-thio-dG (3 μM) and 6-thio-G (3 μM) twice during one week. Following one week of the treatment, cell morphology was monitored, and then the cells were collected and counted.

Series [7] relates to BJ fibroblast cells. The experiment in a line: Telomere length assay (TRF), BJ fibroblasts long-term culture. The note with it: 10 weeks, compared to untreated control. Format: cell-based, human. The procedure: For long-term cellular experiments, HCT116 (1,000 cells/cm^2) and BJ (10,000 cells/cm^2) cells were fed with 6-thio-dG (1, 3, 10 μM) containing medium every three days. The cells were counted and replated every week for 10-16 weeks. Additionally, HCT116 cells (1,000 cells/cm^2) were fed with 6-thio-G (1, 3, 10 μM) every three days and each week cells were counted, collected for TRF (Telomere Restriction Fragment) analysis and replated. HCT116 cells, following treatment with 10 μM 6-thio-dG for 12 weeks, were then treated with a combination of 10 μM 6-thio-dG and 3 μM GRN163L for 2-4 weeks.

In series [8] the target is T1, telomerase (Homo sapiens, UniProt O14746).
T1 construct: endogenous in cells; host or cells: HCT116 human colon cancer cells (lysate)
The experiment in a line: Telomerase activity by TRAP assay in treated HCT116 cells. The series is classed as cell-based. To be noted: HCT116 cells treated with 1 and 10 μM every 3 days for 12 weeks. On the procedure:
Telomerase activity was measured by the TRAP assay (Telomeric Repeat Amplification Protocol as described in Shay J. W. and Bacchetti S., “A survey of telomerase activity in human cancer,” European Journal of Cancer 1997; 33:787-91.). Briefly, HCT116 cells were treated with 1 or 10 μM 6-thio-dG for 1-12 weeks. 1×10^5 cells were collected and lysed with ice-cold NP-40 lysis buffer (10 mM Tris-HCl pH 8.0, 1.0 mM MgCl2, 1 mM EDTA, 1% NP-40, 0.25 mM sodium deoxycholate, 10% glycerol, 150 mM NaCl, 5 mM β-mercaptoethanol) for 30 min. One microliter cellular lysate for 2500 cells was used for each reaction. Hela cells were used as a positive control and lysis buffer was used as a negative control. Samples were prepared and then the telomerase extension products were amplified using PCR (95° C. for 5 min to inactivate telomerase, then 95° C. for 30 sec, 52° C. for 30 sec, 72° C. for 30 sec; 24 cycles). Samples were run on a 10% non-denaturating acrylamide gel and visualized using a Typhoon PhosphorImager scanner system (Molecular Dynamics, GE Healthcare, Piscataway, NJ) that is capable of reading Cy5 fluorescence.

Series [9] has as its system A549 human lung cancer cells. The experiment in a line: Tumor growth in xenograft animal model with A549 cells. The series is classed as in vivo, mice. The note with it: 2.5 mg/kg every day. The procedure: Doses of 2.5 mg/kg of 6-thio-dG and 2.5 mg/kg of 6-thio-G were injected every day into mice after tumor implantation and providing time for tumor initiation. DMSO injections were used for the control. The volume of the tumor was measured.

The nature of series [10]: Toxicity testing in rats. The note with it: for mortality: rats. On the procedure:
Six rats were treated with 15 mg of 6-thio-dG/kg of body weight every two days. […] Another 5 rats were treated with 50 mg of 6-thio-dG/kg of body weight every other day.

Series [11] deals with A549 non-small cell lung cancer cell line. Nature of the series: CellTitreGlo survival, 7 days, A549. The series is classed as cell-based. To be noted: Homo sapiens, 168 h. The procedure: (§4) Four different cell lines were treated with nine different doses of 6-thio-dG for 7 days. HCT116 colon cancer cell line (FIG. 9A), HCEC1 normal colonic cell line (FIG. 9C), A549 non-small cell lung cancer cell line (FIG. 9B), and BJ normal fibroblast cell line (FIG. 9D) were each treated. Survival fraction was measured by CellTitreGlo luminescent cell viability assay (Promega).

Series [12] deals with HCEC1 normal colonic cell line. Nature of the series: CellTitreGlo survival, 7 days, HCEC1. The series is classed as cell-based. The note with it: Homo sapiens, 168 h. The procedure:
as §4

Series [13] has as its system H2086. Nature of the series: NSCLC panel sensitivity to 6-thio-dG, H2086. To be noted: 3 μM every three days for 1 week, normalized to DMSO control. The series is classed as cell-based, human. The procedure:
(§5) A panel of NSCLC cell lines was tested for sensitivity to 6-thio-dG by performing a cell count after 1 week treatment. Briefly, cells were treated with 3 μM 6-thio-dG every three days for 1 week. Viable cells were counted at the end of treatment. Each 6-thiodG treated cell line was normalized to its DMSO treated control. The results of the cell count are depicted in FIG. 12, with the various cell lines arranged in descending resistance to 6-thio-dG from left to right. […] The IC50 values for the whole panel of tested cells are depicted in FIG. 13. The IC50 values for tested cells are depicted as a column scatter graph in FIG. 14.

In series [14] the test system is H1819. The experiment in a line: NSCLC panel sensitivity to 6-thio-dG, H1819. The series is classed as cell-based, human. On the procedure: A panel of NSCLC cell lines was tested for sensitivity to 6-thio-dG by performing a cell count after 1 week treatment. Briefly, cells were treated with 3 μM 6-thio-dG every three days for 1 week. Viable cells were counted at the end of treatment. Each 6-thiodG treated cell line was normalized to its DMSO treated control.
(§6) Two isogenic pairs of NSCLC cell lines were studied for sensitization to 6-thio-dG treatment.

Series [15] has as its system H2085. Nature of the series: NSCLC panel sensitivity to 6-thio-dG, H2085. The series is classed as cell-based. The note with it: Homo sapiens. On the procedure:
as §5

For series [16], the system named is H2343. Nature of the series: NSCLC panel sensitivity to 6-thio-dG, H2343. The series is classed as cell-based. To be noted: Homo sapiens. On the procedure:
as §5

In series [17] the test system is H2073. Nature of the series: NSCLC panel sensitivity to 6-thio-dG, H2073. The series is classed as cell-based. To be noted: Homo sapiens, NCI-H2073.
Excerpt: as §6

The subject of series [18] is paclitaxel/carboplatin resistant H1299. Nature of the series: 6-thio-dG on paclitaxel/carboplatin resistant H1299, cell count. The series is classed as cell-based, human. The note with it: 1, 3, 10 μM every three days for one week. On the procedure:
A cell count was performed to measure cell growth/death.

T1 sequence (O14746 whole entry): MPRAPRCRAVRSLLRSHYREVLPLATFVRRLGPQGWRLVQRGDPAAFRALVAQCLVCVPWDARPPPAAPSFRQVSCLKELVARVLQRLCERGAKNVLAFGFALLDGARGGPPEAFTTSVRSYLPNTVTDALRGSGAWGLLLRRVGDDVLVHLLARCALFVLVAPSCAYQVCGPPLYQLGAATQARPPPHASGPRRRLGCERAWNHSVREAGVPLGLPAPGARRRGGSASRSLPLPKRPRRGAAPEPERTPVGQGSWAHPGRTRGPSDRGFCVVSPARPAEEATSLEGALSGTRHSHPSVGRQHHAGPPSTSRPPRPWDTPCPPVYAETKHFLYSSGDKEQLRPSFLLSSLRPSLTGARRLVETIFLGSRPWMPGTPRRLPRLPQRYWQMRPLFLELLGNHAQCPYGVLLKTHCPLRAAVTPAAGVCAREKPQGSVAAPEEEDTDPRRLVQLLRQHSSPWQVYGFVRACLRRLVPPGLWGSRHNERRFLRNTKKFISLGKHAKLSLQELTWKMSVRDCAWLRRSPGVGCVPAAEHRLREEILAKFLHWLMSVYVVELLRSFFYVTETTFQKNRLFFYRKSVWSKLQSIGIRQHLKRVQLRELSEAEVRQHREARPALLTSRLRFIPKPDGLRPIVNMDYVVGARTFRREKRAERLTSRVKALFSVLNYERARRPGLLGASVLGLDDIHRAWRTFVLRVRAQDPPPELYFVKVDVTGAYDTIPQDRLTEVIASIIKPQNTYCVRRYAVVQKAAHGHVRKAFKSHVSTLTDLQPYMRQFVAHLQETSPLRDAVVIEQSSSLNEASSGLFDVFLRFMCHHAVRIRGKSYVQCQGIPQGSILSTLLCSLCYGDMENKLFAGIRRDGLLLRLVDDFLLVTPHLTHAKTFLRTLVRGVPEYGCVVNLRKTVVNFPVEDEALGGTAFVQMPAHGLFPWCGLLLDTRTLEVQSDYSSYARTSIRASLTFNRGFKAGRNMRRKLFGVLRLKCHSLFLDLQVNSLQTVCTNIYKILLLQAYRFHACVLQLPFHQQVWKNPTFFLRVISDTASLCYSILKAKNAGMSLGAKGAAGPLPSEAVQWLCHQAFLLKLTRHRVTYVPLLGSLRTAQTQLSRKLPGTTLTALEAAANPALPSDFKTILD
T1 sequence (O60832 whole entry partner): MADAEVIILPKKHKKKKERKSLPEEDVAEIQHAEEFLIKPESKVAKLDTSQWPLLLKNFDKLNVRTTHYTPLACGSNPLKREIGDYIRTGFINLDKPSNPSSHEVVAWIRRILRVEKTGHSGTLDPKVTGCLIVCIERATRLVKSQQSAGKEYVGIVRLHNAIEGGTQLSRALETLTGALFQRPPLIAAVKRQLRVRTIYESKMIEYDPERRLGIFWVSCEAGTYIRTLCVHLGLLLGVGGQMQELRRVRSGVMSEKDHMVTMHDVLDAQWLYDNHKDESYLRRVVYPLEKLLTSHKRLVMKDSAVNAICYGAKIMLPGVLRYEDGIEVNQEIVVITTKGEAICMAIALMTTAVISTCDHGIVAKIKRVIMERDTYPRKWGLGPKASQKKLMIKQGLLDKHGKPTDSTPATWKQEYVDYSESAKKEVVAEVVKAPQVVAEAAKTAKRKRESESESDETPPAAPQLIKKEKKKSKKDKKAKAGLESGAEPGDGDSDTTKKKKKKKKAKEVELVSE
T1 sequence (Q9NY12 whole entry partner): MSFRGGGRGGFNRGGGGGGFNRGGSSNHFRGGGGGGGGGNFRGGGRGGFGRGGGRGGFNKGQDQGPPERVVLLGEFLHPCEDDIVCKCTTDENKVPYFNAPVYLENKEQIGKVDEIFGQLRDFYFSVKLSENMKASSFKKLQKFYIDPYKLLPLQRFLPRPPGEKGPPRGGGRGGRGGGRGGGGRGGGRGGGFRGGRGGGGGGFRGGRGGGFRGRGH
T1 sequence (Q9NX24 whole entry partner): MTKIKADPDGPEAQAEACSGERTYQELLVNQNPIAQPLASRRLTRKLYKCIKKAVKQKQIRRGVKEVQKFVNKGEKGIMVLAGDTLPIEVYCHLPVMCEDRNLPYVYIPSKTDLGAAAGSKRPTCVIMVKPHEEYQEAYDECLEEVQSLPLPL
T1 sequence (Q9NPE3 whole entry partner): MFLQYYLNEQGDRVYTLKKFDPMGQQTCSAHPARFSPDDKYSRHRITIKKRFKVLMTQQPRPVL
T1 sequence (Q9BUR4 whole entry partner): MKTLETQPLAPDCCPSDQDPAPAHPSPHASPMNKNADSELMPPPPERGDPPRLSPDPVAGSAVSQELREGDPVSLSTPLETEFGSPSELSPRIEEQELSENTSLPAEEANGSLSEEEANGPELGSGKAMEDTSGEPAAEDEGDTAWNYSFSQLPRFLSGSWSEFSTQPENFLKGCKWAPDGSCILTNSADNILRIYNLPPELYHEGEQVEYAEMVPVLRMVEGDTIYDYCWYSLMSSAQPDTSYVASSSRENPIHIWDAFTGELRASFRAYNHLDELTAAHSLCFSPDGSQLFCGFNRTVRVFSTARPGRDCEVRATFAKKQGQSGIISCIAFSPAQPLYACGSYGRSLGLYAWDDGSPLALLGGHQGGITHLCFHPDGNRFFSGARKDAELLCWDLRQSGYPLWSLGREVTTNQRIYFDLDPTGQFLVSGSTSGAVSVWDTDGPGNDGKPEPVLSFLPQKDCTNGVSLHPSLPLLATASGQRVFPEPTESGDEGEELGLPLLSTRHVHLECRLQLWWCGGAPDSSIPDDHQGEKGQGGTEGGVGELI

As to `Nc1nc2c(ncn2[C@H]2C[C@H](O)[C@@H](CO)O2)c(=S)[nH]1` [6-thio-dG, 6-thio-2′-deoxyguanosine], the results for the “>4 TIFs per nucleus background subtracted” value in [1] and in [2] were 14 and 2, respectively. The GI50 – broadly, the concentration at which growth is held to half of that of the control – in [3] was above 100000 nM; in series [4], 800 nM; in series [5], 2400 nM. The “cell death / cell count” value in [6] is given as “death of the vast majority of HCT116 cells”. Also, in series [7], the “telomere shortening (TRF)” value was “did not show enhanced telomere shortening”. Also, the “inhibition of telomerase activity (TRAP)” value in [8] is reported as “no inhibition of telomerase activity was observed”. The “histology of residual tumors” value in series [9] is “mostly fibrotic and often associated with apoptotic and inflammatory cells”. Besides, in series [9] (compared to control and 6-thio-G), the “rate of tumor growth (tumor volume)” value was “rate of tumor growth was less”. Moreover, the “signs of impaired function in surviving animals” value in series [10] (rat, in vivo, 15 mg/kg) was “no signs of impaired function”. The mortality result in [10] (15 mg/kg every two days, six rats) is “One rat died after 6 injections”; in [10] (50 mg/kg every other day, 5 rats) it was “All rats died after 12 days”. In addition, the half-maximal inhibitory concentration (IC50) (in general, the point on the concentration scale where inhibition reaches its midpoint) is 2400 nM in series [11]; above 100000 nM in [12]; above 100000 nM in [14] (Homo sapiens, NCI-H1819); 3000 to 7000 nM in [15]; 3000 to 7000 nM in [16]; above 700 nM in series [17]. Moreover, the survival rate result in series [13] was “greater than 50%”; in [14] (H1819, 3 μM every three days for 1 week, normalized to DMSO control) it was “greater than 50%”. In addition, the “sensitivity (cell count)” value in [18] is “sensitive to all three concentrations”.
